Data on 3 molecules can be found in patent US20150250770A1, “LKB1 AS PREDICTIVE MARKER OF EVEROLIMUS EFFICACY IN BREAST CANCER” (CENTRE LEON BERARD, priority 2012, published 2015).

Like-named read-outs stand apart in the source and are kept apart here.

For data set [1] the following is noted: TAMRAD study; cited from earlier work.
In data set [2] the test system is breast tumours with low or high LKB1 expression. The data set can be described thus: TAMRAD translational study: time to progression by LKB1 H score (IHC) in primary tumour. Format: in vivo, human.
Protocol: Paraffin embedded breast tumors were serially sectioned at a thickness of 4 μm. After deparaffinization and rehydration, tissue sections were boiled in low pH buffer (Dako) using a PT Link at 97° C. for 30 minutes. For blocking endogenous peroxidases, the slides were incubated in 5% hydrogen peroxide in sterile water. The slides were then incubated at room temperature for one hour with the anti-LKB1 polyclonal rabbit antibody (Ref: Ab58786, Abcam, Cambridge, UK) diluted at 1/50. After rinsing in Phosphate Buffer Saline, the slides were incubated with a biotinylated secondary antibody bound to a streptavidin peroxidase conjugate (Envision Flex kit Ref: K800021-2, Dako, Trappes, France). […] Sections were counterstained with hematoxylin.
All slides were read by a single senior pathologist who was blinded to the clinical data. For comparison of the staining among tissues, samples were scored semi-quantitatively using a complete histological score (H score) that considered both the staining intensity and the percentage of cells stained at a specific range of intensities. For each case, the complete H score was defined as the products of the percentage of cells stained at a given staining intensity (0-100) and the staining intensity score (0, none; 1, weak, 2, moderate, and 3, intense). […]
Data set [3] deals with hormone receptor-positive and human epidermal growth factor receptor type 2 (HER2)-negative mBC. Particulars: cited from earlier work.
The test system of data set [4] is metastatic breast cancer ER+/HER2− progressed after aromatase inhibitor. Particulars: 724 patients randomized 2:1; cited from earlier work.

As to `CO[C@H]1C[C@@H]2CC[C@@H](C)[C@@](O)(O2)C(=O)C(=O)N2CCCC[C@H]2C(=O)O[C@H]([C@H](C)C[C@@H]2CC[C@@H](OCCO)[C@H](OC)C2)CC(=O)[C@H](C)/C=C(\C)[C@@H](O)[C@@H](OC)C(=O)[C@H](C)C[C@H](C)/C=C/C=C/C=C/1C` [everolimus, 42-O-(2-hydroxyethyl)rapamycin], in data set [1], the “patients who had to decrease the dose of everolimus” value was 20% and the “patients who had to stop everolimus due to toxicities” value is 20%.
In the case of `CC/C(=C(\c1ccccc1)c1ccc(OCCN(C)C)cc1)c1ccccc1` [tamoxifen], the time to progression in data set [2] (patients with H Score above 90, p=0.35) came out at 5.5 months; in data set [2] (patients with LKB1 H Score below or at 90, P=0.03), 4.5 months. In addition, the “median TTP” value in data set [3] (ITT population, exploratory P=0.002) is given as 4.5 months. Also, the “clinical benefit rate (CBR) at 6 months” value was 42% in data set [3] (ITT population, exploratory P=0.045) and 41% in data set [3] (per-protocol population). In addition, the “time-to-progression (TTP)” value in data set [3] (TAMRAD trial, 111 patients) is recorded as 4.5 months. Also, the “median OS” value in data set [3] (last update of OS in September 2011) is 32.9 months.
Consider exemestane [exemestane and placebo], for which the “progression free survival (PFS), local investigator assessment” value in data set [4] is listed as 2.8 months.
